Measurements reported in patent publication US20080020421A1, “METHODS OF SCREENING AGENTS FOR CYTOTOXIC AND ANTIMICROBIAL ACTIVITY” (priority 2006, published 2008).

Legend:
HeLa-GFP cells [1] = assay: Fluorescent microscopy cytotoxicity assay (LD50 determination, FIG. 2); assay type: cell-based, human; conditions: for approximate LD50 in HeLa-GFP: various concentrations, cell counts under fluorescent microscopy, FIG. 2
Description: The concentration of the test compounds (μM) are shown within the figure. Horizontal bar indicates the 50% toxicity range. H2O2 (+control, 1 mM) was used as a positive control (+; 100% cytolysis) while cells treated with DMSO (1 μl; solvent for all quinones) was used as the negative (−) control.
Fluorescent microscopy cytotoxicity assays. HeLa-GFP cells were plated on 24-well plates and left overnight to adhere. Different dilutions of the quinones were then added to each well (indicated in the legend) using the same concentrations of the positive and negative controls as described in the previous assay. Cell counts were done under fluorescent microscopy to determine cytotoxicity. The status of the fluorescent GFP-nuclei and the typical morphological characteristics of cells undergoing cell death were taken into account when differentiating between dying or viable cells as previously described (Montoya et al., 2004).

HeLa-GFP cells [2] = assay: HeLa-GFP fluorometric cytotoxicity assay; conditions: for Percent-GFP-fluorescence after incubation with test compounds, HeLa-GFP (2 μg/ml) / Percent-GFP-fluorescence after incubation with test compounds, HeLa-GFP (20 μg/ml): 18 h incubation, relative to untreated (DMSO) cells; for toxicity to HeLa-GFP cells (in words): loss of GFP signal, Table 1 screen
Description: Cell culture. HeLa-GFP cells were cultured in DMEM media supplemented with 10% heat-inactivated newborn calf serum as previously described (Montoya et al., 2004). Stock cultures were prewashed twice with PBS before the treatment of trypsin for cell resuspension and subsequently re-plated at the concentration of 4,000 cells/well.
HeLa-GFP fluorometric cytotoxicity assay. All cell lines were seeded in clear-bottomed 96-well assay plates (3603, Costar, Corning Inc., Corning, N.Y.) in order to minimized background fluorescence. HeLa cells were grown in a total volume of 0.2 ml of medium and incubated overnight for proper cell attachment. The quinone compounds were then added to each well (in triplicate) and then incubated for a period of 18 hr. For the determination of fluorescence, the assay plates were then read using the Fluoroskan Ascent F1 fluorometer (Thermo Electron Corp.) set at the excitation and emission parameters of 485 and 518 nm, respectively. Since the HeLa-GFP cell line is adherent, the fluorometer was set to read from the bottom of the plate for closer proximity to the cells. Before the readings were performed, all supernatant media was removed to avoid any background interference and thus enhancing the sensitivity of the optical readings. For calibration purposes, three untreated control wells were used to determine the maximum level of fluorescence (100%). […] As a cytolysis control (complete loss of fluorescence), three wells containing cells were exposed to 0.2 ml of deionized water. These controls were then used to calculate the percent loss of GFP signal after compound exposure as determined by comparison with control wells containing cells that were not exposed to the chemical agent (see data analysis below).
Data analysis. All compounds, including controls, were screened in triplicate. The average of the three wells that were used for the removal of the background fluorescence (wells containing water for the HeLa-GFP assays and wells containing media alone for bacteria) was subtracted from each individual well. The mean of these triplicate values for each compound was then obtained. These mean values were then divided by the average obtained for maximum fluorescence (cells not treated with compound) and then multiplied by 100 to obtain the percentage values as shown in Table 1.

E. coli-GFP = assay: Toxicity assay with GFP-expressing E. coli; conditions: for Percent-GFP-fluorescence after incubation with test compounds, E. coli-GFP (20 μg/ml): 10 h incubation, relative to untreated bacteria; for toxicity to E. coli (in words): loss of GFP signal, Table 1 screen
Description: (§1) E. coli-GFP cells were grown in LB broth media while the MAC104 M. avium strain was grown in 7H9-ADC media.
(§2) Toxicity assays with GFP-expressing bacteria. E. coli was transformed with a GFP-expression plasmid that also confers tetracycline resistance was kindly provided by Dr. David Schneider (Elrod-Erickson et al., 2000). […] Both bacterial strains were grown and selected based on antibiotic resistance and GFP expression. All toxicity assays were performed using the plates and fluorometric parameters described in the previous section. Bacterial cell suspensions were seeded in a final volume of 100 μl at an optical density of 0.05 and 0.25 at 650 nm, for E. coli-GFP and M. avium-GFP, respectively. After exposure to the test compounds, assay plates were incubated at 37° C. in a humid environment to prevent dehydration in the wells. Unlike the HeLa-GFP assays, reading were performed without removing the supernatants to avoid loss of cells. Several untreated wells containing bacteria and media were used to determine the maximum level of fluorescence. Several wells containing media alone (no bacteria) were included in each assay to remove background fluorescence.
(§3) Data analysis. All compounds, including controls, were screened in triplicate. The average of the three wells that were used for the removal of the background fluorescence (wells containing water for the HeLa-GFP assays and wells containing media alone for bacteria) was subtracted from each individual well. The mean of these triplicate values for each compound was then obtained.

[3] = system: M. avium-GFP (strain MAC104); assay: Toxicity assay with GFP-expressing M. avium; conditions: for Percent-GFP-fluorescence after incubation with test compounds, M. avium-GFP (20 μg/ml): 18 h incubation, relative to untreated bacteria; for toxicity to M. avium (in words): loss of GFP signal, Table 1 screen
Description: as §1, §2, §3

SMILES	cytolysis (positive control) (HeLa-GFP cells [1]; 1 mM, HeLa-GFP) [%]	approximate LD50 in HeLa-GFP (HeLa-GFP cells [1]) [µM]	Percent-GFP-fluorescence after incubation with test compounds, HeLa-GFP (2 μg/ml) (HeLa-GFP cells [2]) [%]	Percent-GFP-fluorescence after incubation with test compounds, HeLa-GFP (20 μg/ml) (HeLa-GFP cells [2]) [%]	toxicity to HeLa-GFP cells (in words) (HeLa-GFP cells [2])	Percent-GFP-fluorescence after incubation with test compounds, E. coli-GFP (20 μg/ml) (E. coli-GFP) [%]	toxicity to E. coli (in words) (E. coli-GFP)	Percent-GFP-fluorescence after incubation with test compounds, M. avium-GFP (20 μg/ml) [3] [%]	toxicity to M. avium (in words) [3]	toxicity to HeLa-GFP cells (in words) (HeLa-GFP cells [2]; listed as Plumbagin)	toxicity to E. coli (in words) (E. coli-GFP; listed as Plumbagin)	toxicity to M. avium (in words) ([3]; listed as Plumbagin)
OO [Compound H2O2, H2O2]	100											
O=C1C=CC(=O)c2c(O)ccc(O)c21 [Compound Q3, naphthazarin, reference compound]		~3.0	0	4.0	highly toxic	41.0	highly toxic	38.0	highly toxic			
CC1=CC(=O)c2c(O)cccc2C1=O [Compound Q1, plumbagin, reference compound]		~3.0	13.0	9.0	most toxic	1.0	most toxic	7.0	most toxic	third-most toxic to HeLa cells	most toxic compound to E. coli	most toxic to M. avium
CCOC(=O)C12OC1(CC)C(=O)c1ccccc1C2=O (stereo not shown) [Compound Q28]			17.0	4.0		115.0		97.0				
CCCC1=C(CCC)C(=O)c2ccccc2C1=O [Compound Q8]			89.0	16.0		134.0		102.0				
CCCCCC1=CC(=O)c2ccccc2C1=O [Compound Q10]			84.0	52.0		110.0		81.0				
O=C1C=C(c2ccccc2)C(=O)c2ccccc21 [Compound Q7]			13.0	25.0		89.0		35.0				
CCCC12OC1(CC)C(=O)c1ccccc1C2=O (stereo not shown) [Compound Q27]			21.0	21.0		117.0		133.0				
